Measurements: ChEMBL document CHEMBL1201862, “PubChem BioAssay data set” (2004)
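Protocol summary: plate cells (96-well), add compound at 5 concentrations, incubate 48 h, interpolate endpoints linearly. GI50 = concentration required for 50% inhibition of growth.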 Calls of active or inactive are those of the source. No stated cut-off is given here; in the data, active = GI50 up to about 1.1 µM and inactive = higher.

Columns and labels:
Assay in all cases: growth of human tumour cells (NCI), 48 h
[1] = test system: CAKI-1
[2] = test system: HOP-92
[3] = test system: OVCAR-4
[4] = test system: HL-60
[5] = test system: OVCAR-3
[6] = test system: A549
[7] = test system: MCF7
[8] = test system: HCT-116
[9] = test system: Hs-578T
[10] = test system: SN12C
[11] = test system: NCI/ADR-RES
[12] = test system: SR
[13] = test system: OVCAR-5
[14] = test system: U-251
[15] = test system: Malme-3M
[16] = test system: CCRF-CEM
[17] = test system: LOX IMVI
[18] = test system: T47D
[19] = test system: NCI-H226
[20] = test system: MDA-MB-231
[21] = test system: SW-620
[22] = test system: UO-31
[23] = test system: OVCAR-8
[24] = test system: EKVX
[25] = test system: MDA-MB-435
[26] = test system: KM12
[27] = test system: NCI-H522
[28] = test system: TK-10
[29] = test system: K562
[30] = test system: HCT-15
[31] = test system: SF-268
[32] = test system: SK-MEL-2
[33] = test system: MDA-N
[34] = test system: DU-145
[35] = test system: SNB-75
[36] = test system: BT-549
[37] = test system: SF-295
[38] = test system: RPMI-8226
[39] = test system: HCC 2998
[40] = test system: UACC-257
[41] = test system: NCI-H23
[42] = test system: NCI-H460
[43] = test system: SK-MEL-5
[44] = test system: ACHN
[45] = test system: RXF 393
[46] = test system: IGROV-1
[47] = test system: HT-29
[48] = test system: PC-3
[49] = test system: COLO 205
[50] = test system: UACC-62
[51] = test system: 786-0
[52] = test system: SF-539
[53] = test system: MOLT-4
[54] = test system: SK-MEL-28
[55] = test system: A498
[56] = test system: HOP-62
[57] = test system: M14
[58] = test system: SK-OV-3
[59] = test system: SNB-19

## C=C1CCC2CC1[C@@H](C(=O)c1c[nH]c3ccccc13)NC2(C)C (some centres undefined)
[1]
  GI50: 8.51 µM (inactive)
[2]
  GI50: 13.2 µM (inactive)
[3]
  GI50: > 37.5 µM (inactive)
[4]
  GI50: 34.8 µM (inactive)
[5]
  GI50: > 37.5 µM (inactive)
[6]
  GI50: > 37.5 µM (inactive)
[7]
  GI50: > 37.5 µM (inactive)
[8]
  GI50: > 37.5 µM (inactive)
[9]
  GI50: > 37.5 µM (inactive)
[10]
  GI50: > 37.5 µM (inactive)
[11]
  GI50: > 37.5 µM (inactive)
[12]
  GI50: 33 µM (inactive)
[13]
  GI50: > 37.5 µM (inactive)
[14]
  GI50: > 37.5 µM (inactive)
[15]
  GI50: > 37.5 µM (inactive)
[16]
  GI50: > 37.5 µM (inactive)
[17]
  GI50: > 37.5 µM (inactive)
[18]
  GI50: 30.6 µM (inactive)
[19]
  GI50: > 37.5 µM (inactive)
[20]
  GI50: > 37.5 µM (inactive)
[21]
  GI50: > 37.5 µM (inactive)
[22]
  GI50: 29.5 µM (inactive)
[23]
  GI50: > 37.5 µM (inactive)
[24]
  GI50: > 37.5 µM (inactive)
[25]
  GI50: > 37.5 µM (inactive)
[26]
  GI50: > 37.5 µM (inactive)
[27]
  GI50: > 37.5 µM (inactive)
[28]
  GI50: > 37.5 µM (inactive)
[29]
  GI50: 21.9 µM (inactive)
[30]
  GI50: > 37.5 µM
[31]
  GI50: > 37.5 µM (inactive)
[32]
  GI50: 27.1 µM (inactive)
[33]
  GI50: > 37.5 µM (inactive)
[34]
  GI50: > 37.5 µM (inactive)
[35]
  GI50: > 37.5 µM (inactive)
[36]
  GI50: > 37.5 µM (inactive)
[37]
  GI50: > 37.5 µM (inactive)
[38]
  GI50: > 37.5 µM (inactive)
[39]
  GI50: 10.7 µM (inactive)
[40]
  GI50: > 37.5 µM (inactive)
[41]
  GI50: > 37.5 µM (inactive)
[42]
  GI50: > 37.5 µM (inactive)
[43]
  GI50: > 37.5 µM (inactive)
[44]
  GI50: > 37.5 µM (inactive)
[45]
  GI50: > 37.5 µM (inactive)
[46]
  GI50: > 37.5 µM (inactive)
[47]
  GI50: 29.7 µM (inactive)
[48]
  GI50: 19.5 µM (inactive)
[49]
  GI50: 35 µM (inactive)
[50]
  GI50: 18.7 µM (inactive)
[51]
  GI50: > 37.5 µM (inactive)
[52]
  GI50: > 37.5 µM (inactive)
[53]
  GI50: > 37.5 µM (inactive)
[54]
  GI50: > 37.5 µM (inactive)
[55]
  GI50: > 37.5 µM (inactive)
[56]
  GI50: > 37.5 µM (inactive)

## N#Cc1c(O)nc2nn3c4ccc5ccccc5c4nnc3c2c1-c1ccc(Cl)cc1
[1]
  GI50: 2.29 µM (inactive)
[2]
  GI50: 2.3 µM (inactive)
[3]
  GI50: 3.58 µM (inactive)
[4]
  GI50: 0.421 µM (active)
[5]
  GI50: 1.69 µM (inactive)
[6]
  GI50: 4.57 µM (inactive)
[7]
  GI50: 1.75 µM (inactive)
[8]
  GI50: 2.4 µM (inactive)
[9]
  GI50: 2.76 µM (inactive)
[10]
  GI50: 3.34 µM (inactive)
[11]
  GI50: 4.55 µM (inactive)
[12]
  GI50: 0.675 µM (active)
[13]
  GI50: 6.24 µM (inactive)
[14]
  GI50: 2.12 µM (inactive)
[15]
  GI50: 1.93 µM (inactive)
[16]
  GI50: 1.56 µM (inactive)
[17]
  GI50: 1.83 µM (inactive)
[18]
  GI50: 0.313 µM (active)
[19]
  GI50: 7.14 µM (inactive)
[57]
  GI50: 2.38 µM (inactive)
[20]
  GI50: 5.36 µM (inactive)
[21]
  GI50: 2.03 µM (inactive)
[22]
  GI50: 2.38 µM (inactive)
[23]
  GI50: 2.27 µM (inactive)
[24]
  GI50: 3.93 µM (inactive)
[25]
  GI50: 3.3 µM (inactive)
[26]
  GI50: 2.8 µM (inactive)
[27]
  GI50: 1.5 µM (inactive)
[28]
  GI50: 5.89 µM (inactive)
[29]
  GI50: 4.16 µM (inactive)
[30]
  GI50: 1.89 µM
[58]
  GI50: 3.3 µM (inactive)
[31]
  GI50: 2.51 µM (inactive)
[32]
  GI50: 1.9 µM (inactive)
[33]
  GI50: 2.52 µM (inactive)
[34]
  GI50: 1.95 µM (inactive)
[36]
  GI50: 0.174 µM (active)
[37]
  GI50: 1.84 µM (inactive)
[38]
  GI50: 2.9 µM (inactive)
[59]
  GI50: 3.13 µM (inactive)
[39]
  GI50: 2.68 µM (inactive)
[40]
  GI50: 3.58 µM (inactive)
[41]
  GI50: 1.97 µM (inactive)
[42]
  GI50: 2.24 µM (inactive)
[43]
  GI50: 1.92 µM (inactive)
[44]
  GI50: 2.49 µM (inactive)
[45]
  GI50: 2.01 µM (inactive)
[46]
  GI50: 1.2 µM (inactive)
[47]
  GI50: 2.94 µM (inactive)
[48]
  GI50: 2.43 µM (inactive)
[49]
  GI50: 2.24 µM (inactive)
[50]
  GI50: 1.49 µM (inactive)
[51]
  GI50: 2.59 µM (inactive)
[52]
  GI50: 1.96 µM (inactive)
[53]
  GI50: 2.4 µM (inactive)
[54]
  GI50: 2.24 µM (inactive)
[55]
  GI50: 1.58 µM (inactive)
[56]
  GI50: 3.16 µM (inactive)
